# Measured values from ChEMBL document CHEMBL6114980, “Single or double lipid-modified ultra-short antimicrobial peptides for treating infections caused by resistant bacteria” (Eur J Med Chem, 2025).
# Active and inactive are the calls of the source. No cut-off for these calls is given here. Peptide text beside a SMILES is read from it. * marks the point of attachment. Myristoyl = CCCCCCCCCCCCCC(=O)*; Lauroyl = CCCCCCCCCCCC(=O)*; Decanoyl = CCCCCCCCCC(=O)*; Octanoyl = CCCCCCCC(=O)*; Hexanoyl = CCCCCC(=O)*; Butyryl = CCCC(=O)*
# Key:
# Acinetobacter baumannii [1] = assay: Antibacterial activity against Acinetobacter baumannii ATCC 19606 assessed as reduction in bacterial growth incubated for 18 to 24 hrs by broth microdilution method; type: functional; details: time 18-24 hrs
# Klebsiella pneumoniae = assay: Antibacterial activity against Klebsiella pneumoniae ATCC 700603 assessed as reduction in bacterial growth incubated for 18 to 24 hrs by broth microdilution method; type: functional; details: time 18-24 hrs
# Escherichia coli [2] = assay: Antibacterial activity against Escherichia coli ATCC 25922 assessed as reduction in bacterial growth incubated for 18 to 24 hrs by broth microdilution method; type: functional; details: time 18-24 hrs
# Pseudomonas aeruginosa [3] = assay: Antibacterial activity against Pseudomonas aeruginosa ATCC 27853 assessed as reduction in bacterial growth incubated for 18 to 24 hrs by broth microdilution method; type: functional; details: time 18-24 hrs
# Enterococcus faecalis = assay: Antibacterial activity against Enterococcus faecalis ATCC 29212 assessed as reduction in bacterial growth incubated for 18 to 24 hrs by broth microdilution method; type: functional; details: time 18-24 hrs
# [4] = system: Staphylococcus epidermidis; assay: Antibacterial activity against Staphylococcus epidermidis ATCC 12228 assessed as reduction in bacterial growth incubated for 18 to 24 hrs by broth microdilution method; type: functional; details: time 18-24 hrs
# Bacillus subtilis = assay: Antibacterial activity against Bacillus subtilis ATCC 23857 assessed as reduction in bacterial growth incubated for 18 to 24 hrs by broth microdilution method; type: functional; details: time 18-24 hrs
# Staphylococcus aureus [5] = assay: Antibacterial activity against Staphylococcus aureus ATCC 25923 assessed as reduction in bacterial growth incubated for 18 to 24 hrs by broth microdilution method; type: functional; details: time 18-24 hrs
# Staphylococcus aureus [6] = assay: Antibacterial activity against methicillin-resistant Staphylococcus aureus ATCC 33591 assessed as reduction in bacterial growth incubated for 18 to 24 hrs by broth microdilution method; type: functional; details: time 18-24 hrs
# Staphylococcus aureus [7] = assay: Antibacterial activity against methicillin-resistant Staphylococcus aureus 75 assessed as reduction in bacterial growth incubated for 18 to 24 hrs by broth microdilution method; type: functional; details: time 18-24 hrs
# Staphylococcus aureus [8] = assay: Antibacterial activity against Staphylococcus aureus 113 assessed as reduction in bacterial growth incubated for 18 to 24 hrs by broth microdilution method; type: functional; details: time 18-24 hrs
# Staphylococcus aureus [9] = assay: Antibacterial activity against Staphylococcus aureus 125 assessed as reduction in bacterial growth incubated for 18 to 24 hrs by broth microdilution method; type: functional; details: time 18-24 hrs
# Staphylococcus aureus [10] = assay: Antibacterial activity against Staphylococcus aureus 794 assessed as reduction in bacterial growth incubated for 18 to 24 hrs by broth microdilution method; type: functional; details: time 18-24 hrs
# Acinetobacter baumannii [11] = assay: Antibacterial activity against Acinetobacter baumannii 5444 assessed as reduction in bacterial growth incubated for 18 to 24 hrs by broth microdilution method; type: functional; details: time 18-24 hrs
# Acinetobacter baumannii [12] = assay: Antibacterial activity against Acinetobacter baumannii 92359 assessed as reduction in bacterial growth incubated for 18 to 24 hrs by broth microdilution method; type: functional; details: time 18-24 hrs
# Escherichia coli [13] = assay: Antibacterial activity against Escherichia coli 850 assessed as reduction in bacterial growth incubated for 18 to 24 hrs by broth microdilution method; type: functional; details: time 18-24 hrs
# Escherichia coli [14] = assay: Antibacterial activity against Escherichia coli 780 assessed as reduction in bacterial growth incubated for 18 to 24 hrs by broth microdilution method; type: functional; details: time 18-24 hrs
# Pseudomonas aeruginosa [15] = assay: Antibacterial activity against Pseudomonas aeruginosa 124 assessed as reduction in bacterial growth incubated for 18 to 24 hrs by broth microdilution method; type: functional; details: time 18-24 hrs
# Pseudomonas aeruginosa [16] = assay: Antibacterial activity against Pseudomonas aeruginosa 6434N assessed as reduction in bacterial growth incubated for 18 to 24 hrs by broth microdilution method; type: functional; details: time 18-24 hrs
# Cell membrane [17] = assay: Induction of cytoplasmic membrane depolarization in Escherichia coli assessed as increase in fluorescence intensity at 0.5 to 2 times MIC measured for 10 mins by DiSC3-5 dye based fluorescence assay
# Cell membrane [18] = assay: Induction of cytoplasmic membrane depolarization in Staphylococcus aureus assessed as increase in fluorescence intensity at 0.5 to 4 times MIC measured for 1 mins by DiSC3-5 dye based fluorescence assay
Structure (SMILES),MIC (Acinetobacter baumannii [1]) [µM],MIC (Klebsiella pneumoniae) [µM],MIC (Escherichia coli [2]) [µM],MIC (Pseudomonas aeruginosa [3]) [µM],MIC (Enterococcus faecalis) [µM],MIC [4] [µM],MIC (Bacillus subtilis) [µM],MIC (Staphylococcus aureus [5]) [µM],also measured
CCCCCCCCCCCC(=O)NCCCC[C@H](NC(=O)CCCCCCCCCCC)C(=O)N[C@@H](CCCCN)C(=O)N[C@@H](CCCCN)C(=O)N[C@@H](Cc1c[nH]c2ccccc12)C(=O)N[C@@H](Cc1c[nH]c2ccccc12)C(N)=O (Lauroyl-K(Lauroyl)KKWW-NH2),128,128,128,128,128,128,128,128,
CCCCCC(=O)N[C@@H](CCCCN)C(=O)N[C@@H](CCCCN)C(=O)N[C@@H](Cc1c[nH]c2ccccc12)C(=O)N[C@@H](Cc1c[nH]c2ccccc12)C(N)=O (Hexanoyl-KKWW-NH2),128,128,128,128,128,128,128,128,
CCCCCC(=O)NCCCC[C@H](NC(=O)CCCCC)C(=O)N[C@@H](CCCCN)C(=O)N[C@@H](CCCCN)C(=O)N[C@@H](Cc1c[nH]c2ccccc12)C(=O)N[C@@H](Cc1c[nH]c2ccccc12)C(N)=O (Hexanoyl-K(Hexanoyl)KKWW-NH2),128,128,128,64,128,128,64,128,
CCCCCCCCCCCCCC(=O)NCCCC[C@H](NC(=O)CCCCCCCCCCCCC)C(=O)N[C@@H](CCCCN)C(=O)N[C@@H](CCCCN)C(=O)N[C@@H](Cc1c[nH]c2ccccc12)C(=O)N[C@@H](Cc1c[nH]c2ccccc12)C(N)=O (Myristoyl-K(Myristoyl)KKWW-NH2),128,128,128,128,128,128,128,128,
CC(=O)OCC1=C(C(=O)O)N2C(=O)[C@@H](NC(=O)Cc3cccs3)[C@H]2SC1 [CEPHALOTHIN],32,16,1,16,4,1,1,1,MIC (Staphylococcus aureus [6]): 128 µM; MIC (Staphylococcus aureus [7]): 128 µM; MIC (Staphylococcus aureus [8]): 8 µM; MIC (Staphylococcus aureus [9]): 1 µM; MIC (Staphylococcus aureus [10]): 128 µM; MIC (Acinetobacter baumannii [11]): 128 µM; MIC (Acinetobacter baumannii [12]): 128 µM; MIC (Escherichia coli [13]): 8 µM; MIC (Escherichia coli [14]): 1 µM; MIC (Pseudomonas aeruginosa [15]): 128 µM; MIC (Pseudomonas aeruginosa [16]): 16 µM
CN[C@@H]1[C@H](O[C@H]2[C@H](O[C@H]3[C@H](O)[C@@H](O)[C@H](N=C(N)N)[C@@H](O)[C@@H]3N=C(N)N)O[C@@H](C)[C@]2(O)C=O)O[C@@H](CO)[C@H](O)[C@H]1O [STREPTOMYCIN],64,1,4,2,16,1,1,1,MIC (Staphylococcus aureus [6]): 64 µM; MIC (Staphylococcus aureus [7]): 64 µM; MIC (Staphylococcus aureus [8]): 128 µM; MIC (Staphylococcus aureus [9]): 128 µM; MIC (Staphylococcus aureus [10]): 128 µM; MIC (Acinetobacter baumannii [11]): 128 µM; MIC (Acinetobacter baumannii [12]): 128 µM; MIC (Escherichia coli [13]): 32 µM; MIC (Escherichia coli [14]): 128 µM; MIC (Pseudomonas aeruginosa [15]): 4 µM; MIC (Pseudomonas aeruginosa [16]): 2 µM
CCCC(=O)NCCCC[C@H](NC(=O)CCC)C(=O)N[C@@H](CCCCN)C(=O)N[C@@H](CCCCN)C(=O)N[C@@H](Cc1c[nH]c2ccccc12)C(=O)N[C@@H](Cc1c[nH]c2ccccc12)C(N)=O (Butyryl-K(Butyryl)KKWW-NH2),128,128,128,128,128,128,128,128,
CCCCCCCCCC(=O)NCCCC[C@H](NC(=O)CCCCCCCCC)C(=O)N[C@@H](CCCCN)C(=O)N[C@@H](CCCCN)C(=O)N[C@@H](Cc1c[nH]c2ccccc12)C(=O)N[C@@H](Cc1c[nH]c2ccccc12)C(N)=O (Decanoyl-K(Decanoyl)KKWW-NH2),16,128,16,16,16,8,8,16,
CCCCCCCCCCCCCC(=O)N[C@@H](CCCCN)C(=O)N[C@@H](CCCCN)C(=O)N[C@@H](Cc1c[nH]c2ccccc12)C(=O)N[C@@H](Cc1c[nH]c2ccccc12)C(N)=O (Myristoyl-KKWW-NH2),32,32,32,16,8,4,2,4,Activity (Cell membrane [17]): Active; Compound Showed Similar Effect As Quality Control Polymyxin B; Activity (Cell membrane [18]): Active
CCCCCCCCCC(=O)N[C@@H](CCCCN)C(=O)N[C@@H](CCCCN)C(=O)N[C@@H](Cc1c[nH]c2ccccc12)C(=O)N[C@@H](Cc1c[nH]c2ccccc12)C(N)=O (Decanoyl-KKWW-NH2),32,32,16,8,32,16,4,16,
CCCCCCCC(=O)N[C@@H](CCCCN)C(=O)N[C@@H](CCCCN)C(=O)N[C@@H](Cc1c[nH]c2ccccc12)C(=O)N[C@@H](Cc1c[nH]c2ccccc12)C(N)=O (Octanoyl-KKWW-NH2),128,128,64,16,128,32,4,32,
CCCC(=O)N[C@@H](CCCCN)C(=O)N[C@@H](CCCCN)C(=O)N[C@@H](Cc1c[nH]c2ccccc12)C(=O)N[C@@H](Cc1c[nH]c2ccccc12)C(N)=O (Butyryl-KKWW-NH2),128,128,128,128,128,128,128,128,
COc1cccc(OC)c1C(=O)N[C@@H]1C(=O)N2[C@@H]1SC(C)(C)[C@@H]2C(=O)O [METHICILLIN],128,128,128,128,128,4,2,1,MIC (Staphylococcus aureus [6]): 128 µM; MIC (Staphylococcus aureus [7]): 128 µM; MIC (Staphylococcus aureus [8]): 8 µM; MIC (Staphylococcus aureus [9]): 2 µM; MIC (Staphylococcus aureus [10]): 128 µM; MIC (Acinetobacter baumannii [11]): 128 µM; MIC (Acinetobacter baumannii [12]): 128 µM; MIC (Escherichia coli [13]): 128 µM; MIC (Escherichia coli [14]): 128 µM; MIC (Pseudomonas aeruginosa [15]): 128 µM; MIC (Pseudomonas aeruginosa [16]): 128 µM
